Measurements as given in EP1038864A1, “NOVEL METALLOPROTEINASE INHIBITORS” (FUJI YAKUHIN KOGYO KABUSHIKI KAISHA, priority 1997, dated 1999).

target: T1, human fibroblast collagenase (Homo sapiens, UniProt P03956); assay: Assay for inhibition of collagenase (fluorescein-labeled bovine type I collagen substrate); type: biochemical; details: activated human fibroblast procollagenase, 35°C, 2 hours, pH 7.5; read-out: Inhibition of MMP-1
T1 sequence (P03956 100-469): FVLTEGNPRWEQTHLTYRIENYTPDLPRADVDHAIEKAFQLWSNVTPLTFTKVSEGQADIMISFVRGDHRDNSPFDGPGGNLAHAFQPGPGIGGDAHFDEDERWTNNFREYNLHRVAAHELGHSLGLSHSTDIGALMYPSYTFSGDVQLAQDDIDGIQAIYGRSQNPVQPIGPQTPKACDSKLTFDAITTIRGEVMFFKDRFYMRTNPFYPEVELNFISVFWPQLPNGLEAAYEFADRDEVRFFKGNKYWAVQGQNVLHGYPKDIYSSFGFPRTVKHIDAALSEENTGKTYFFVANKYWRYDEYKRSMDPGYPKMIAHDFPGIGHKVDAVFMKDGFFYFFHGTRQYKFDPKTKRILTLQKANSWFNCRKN
Experimental: (§1) Described below are assays for biological activities of the compounds according to the present invention, formulations, dosage forms and dosage levels thereof, and miscellaneous matters. The efficacy of the compounds represented by the formula (I) according to the present invention as inhibitors of human fibroblast collagenase (metalloproteinase involved in the breakdown of tissues) is determined by a procedure based on the method of Y. Murawaki et al., Journal of Hepatology, 18, p328-334 (1993). The efficacy of the compounds (I) of this invention as inhibitors of human fibroblast stromelysin is determined by a procedure based on the method of S. S. Twining, Anal. Biochem., 143, p30 (1984). The assay results obtained are shown hereinbelow, together with biological examples which illustrate embodiments of the assay protocols.
The efficacy of compounds of the present invention to act as inhibitors of human fibroblast collagenase was determined by the procedure of Y. Murawaki et al. (Journal of Hepatology, 18, p.328-334, 1993), compared with a reference compound.
Procollagenase was activated by incubation with 2 mM 4-aminophenylmercuric acetate (APMA) at 35°C for 2 hours. The inhibition was assayed using, as a substrate, fluorescein-labeled bovine type I collagen. To a solution of the substrate (0.5 mg/ml) in a 50 mM Tris-HCl buffer, pH 7.5, containing 0.4M aqueous sodium chloride and 10 mM aqueous […] was added the activated collagenase. The resultant solution was incubated at 35°C for 2 hours. The digestion of the substrate with the enzyme was stopped by addition of 80 mM o-phenanthroline, followed by addition of a porcine elastase solution formed by dissolving 25 µg/ml porcine elastase in the aforementioned Tris-HCl buffer. The mixture was incubated at 37°C for 10 minutes. To the resulting solution was added 70% ethanol, and a 170 mM Tris-HCl buffer, pH 9.5, containing 0.67M aqueous sodium chloride. Undigested substrates were precipitated by centrifugation at 3000 x g for 20 minutes. The supernatant was collected and the fluorescence was read using an excitation wavelength of 495 nm and an emission wavelength of 520 nm. The inhibitory potency of the compounds was calculated. […] The resulting assay data for representative examples are shown in Table 1, compared with the reference compound. […]

SMILES	IC50
CNC(=O)[C@H](CCCCN)NC(=O)[C@H](CC(C)C)C(CCCN1CCOCC1)C(=O)NO (single isomer, unassigned) [Compound No. 73, N^a-[4-(Hydroxyamino)-2(R)-isobutyl-3(R or S)-[3-(morpholin-4-yl)propyl]succinyl]-L-lysine N-methylamide· 1 acetate]	11 nM
CNC(=O)[C@@H](NC(=O)[C@H](CC(C)C)C(CCCc1ccc(CN)cc1)C(=O)NO)C(C)(C)C (single isomer, unassigned) [Compound No. 79, N^a-[4-(Hydroxyamino)-2(R)-isobutyl-3(R or S)-[3-(p-aminomethylphenyl)propyl]succinyl]-L-tert-leucine N-methylamide· 1 acetate]	5 nM
CNC(=O)[C@H](CCCN)NC(=O)[C@H](CC(C)C)C(CCCc1ccc(CN)cc1)C(=O)NO (single isomer, unassigned) [Compound No. 80, N^a-[4-(Hydroxyamino)-2(R)-isobutyl-3(R or S)-[3-(p-aminomethylphenyl)propyl]succinyl]-L-ornithine N-methylamide· 1 acetate]	9 nM

Now from value to molecule:

IC50	SMILES
10 nM	CNC(=O)C(CCNC(=N)N)NC(=O)C(CC(C)C)C(C)C(=O)NO (single isomer, unassigned) [Compound No. 28, N^4-[3-Guanidino-1(S)-methylcarbamoylpropyl]-N^1-hydroxy-3(R)-isobutyl-2(R or S)-methylsuccinamide · 1 acetate]
18 nM	CNC(=O)[C@H](CCN)NC(=O)[C@H](CC(C)C)C(CCCc1ccc(CN)cc1)C(=O)NO (single isomer, unassigned) [Compound No. 78, N^4-[3-Amino-1(S)-methylcarbamoylpropyl)-N^1-hydroxy-2(R or S)-[3-(p-aminomethylphenyl)propyl]-3(R)-isobutylsuccinamide· 2 acetate]

target: human fibroblast stromelysin (Homo sapiens, UniProt P08254); assay: Assay for inhibition of stromelysin (fluorescein-labeled casein substrate); type: biochemical; details: not given
Experimental: as §1
The efficacy of compounds of the present invention to act as inhibitors of human fibroblast stromelysin was determined by the procedure of Twining (Anal. Biochem., 143, p.30, 1984), compared with a reference compound.
Prostromelysin was activated by incubation with 20 µg/ml human plasmin at 37°C for 2 hours, and the reaction was stopped by addition of 2.8 mg/ml aqueous diisopropyl fluorophosphate. The inhibition was assayed using, as a substrate, fluorescein-labeled casein. To a solution of the substrate (1 mg/ml) in a 50 mM Tris-HCl buffer, pH 7.8, containing 10mM aqueous calcium chloride was added the activated stromelysin. The resultant solution was incubated at 37°C for 2 hours. The digestion of the substrate with the enzyme was stopped by addition of 5% trichloroacetic acid. Undigested substrates were precipitated by centrifugation at 3000 x g for 20 minutes. The supernatant was collected, followd by additon of a 0.5M Tris-HCl buffer, pH 8.5. The fluorescence was read using an excitation wavelength of 495 nm and an emission wavelength of 520 nm. The inhibitory potency of the compounds was calculated. […] The resulting assay data for representative examples are shown in Table 2, compared with the reference compound.

human fibroblast stromelysin, sequence (P08254 100-477): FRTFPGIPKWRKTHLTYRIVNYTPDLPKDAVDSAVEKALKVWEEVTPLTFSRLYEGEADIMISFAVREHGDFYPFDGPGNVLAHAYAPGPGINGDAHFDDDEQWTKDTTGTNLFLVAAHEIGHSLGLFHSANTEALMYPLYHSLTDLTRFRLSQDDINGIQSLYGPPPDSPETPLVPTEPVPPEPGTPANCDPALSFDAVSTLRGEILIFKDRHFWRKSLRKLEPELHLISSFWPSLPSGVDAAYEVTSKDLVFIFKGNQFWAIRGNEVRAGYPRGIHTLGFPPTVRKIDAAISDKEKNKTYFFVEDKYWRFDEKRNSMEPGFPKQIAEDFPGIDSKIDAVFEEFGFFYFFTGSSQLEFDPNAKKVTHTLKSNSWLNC

IC50	SMILES
23 nM	CNC(=O)[C@H](CCCNC(=N)N)NC(=O)[C@H](CC(C)C)C(Cc1ccc(CNS(C)(=O)=O)cc1)C(=O)NO (single isomer, unassigned) [Compound No. 52, N^a-[4-(Hydroxyamino)-2(R)-isobutyl-3(R or S)-(p-methanesulfonamidomethylbenzyl)succinyl]-L-arginine N-methylamide· 1 acetate]
10 nM	CNC(=O)[C@H](CCCNC(=N)N)NC(=O)[C@H](CC(C)C)C(CCOc1ccccc1)C(=O)NO (single isomer, unassigned) [Compound No. 54, N^a-[4-(Hydroxyamino)-2(R)-isobutyl-3(R or S)-(2-phenoxyethyl)succinyl]-L-arginine N-methylamide· 1 acetate]
14 nM	CNC(=O)[C@H](CCCCN)NC(=O)[C@H](CC(C)C)C(CCCCCCCCO)C(=O)NO (single isomer, unassigned) [Compound No. 68, N^a-[4-(Hydroxyamino)-2(R)-isobutyl-3(R or S)-(8-hydroxyoctyl)-succinyl]-L-lysine N-methylamide· 1 acetate]
28 nM	CNC(=O)[C@H](CCCCN)NC(=O)[C@H](CC(C)C)C(CCOCC(C)C)C(=O)NO (single isomer, unassigned) [Compound No. 70, N^a-[4-(Hydroxyamino)-2(R)-isobutyl-3(R or S)-(2-isobutyloxyethyl)succinyl]-L-lysine N-methylamide· 1 acetate]
40 nM	CNC(=O)C(CCNC(=N)N)NC(=O)C(CC(C)C)C(CCCc1ccccc1)C(=O)NO [Compound No. 26, N^4-[3-Guanidino-1(S)-methylcarbamoylpropyl]-N^1-hydroxy-3(R)-isobutyl-2-(RS)-(3-phenylpropyl)succinamide · 1 acetate]

same assay, conditions: plasmin-activated human fibroblast prostromelysin, 37°C, 2 hours, pH 7.8; read-out: Inhibition of MMP-3

IC50	SMILES
50 nM	CC(C)CC(C(=O)NC(CCCN)C(=O)NC1CC1)C(C)C(=O)NO (single isomer, unassigned) [Compound No. 37, N^a-[4-(Hydroxyamino)-2(R)-isobutyl-3(R or S)-methylsuccinyl]-L-ornithine N-cyclopropylamide · 1 acetate]
19 nM	CC(C)CC(C(=O)NO)C(CC(C)C)C(=O)NC(Cc1ccc(CN)cc1)C(=O)NCCO [Compound No. 35, N^a-[4-(Hydroxyamino)-2(R),3(RS)-diisobutylsuccinyl]-4'-aminomethyl-L-phenylalanine N-(2-hydroxyethyl)amide · 1 acetate]

target: TNF-α Convertase (Homo sapiens, UniProt P78536); assay: Assay for inhibition of TNF-α production in LPS-stimulated, PMA-differentiated U937 cells; details: not given
Sequence (P78536 215-824): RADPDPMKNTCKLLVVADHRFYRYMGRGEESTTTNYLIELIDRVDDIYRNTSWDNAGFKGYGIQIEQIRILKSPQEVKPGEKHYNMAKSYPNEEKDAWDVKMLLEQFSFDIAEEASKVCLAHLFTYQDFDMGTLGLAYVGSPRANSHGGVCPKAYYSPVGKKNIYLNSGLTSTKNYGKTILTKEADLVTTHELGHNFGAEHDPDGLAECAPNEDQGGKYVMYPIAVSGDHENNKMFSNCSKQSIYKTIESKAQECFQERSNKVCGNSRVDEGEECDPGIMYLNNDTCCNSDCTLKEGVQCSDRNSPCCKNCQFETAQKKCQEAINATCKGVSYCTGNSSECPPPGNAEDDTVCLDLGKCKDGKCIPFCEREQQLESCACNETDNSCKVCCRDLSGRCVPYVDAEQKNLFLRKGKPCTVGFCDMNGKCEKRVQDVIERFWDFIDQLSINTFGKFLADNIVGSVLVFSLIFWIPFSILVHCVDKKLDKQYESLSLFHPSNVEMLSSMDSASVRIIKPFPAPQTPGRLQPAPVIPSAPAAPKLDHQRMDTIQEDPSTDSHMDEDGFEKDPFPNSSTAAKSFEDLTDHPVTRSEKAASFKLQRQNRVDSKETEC

SMILES	IC50
CNC(=O)C(Cc1ccc(CN)cc1)NC(=O)C(CC(C)C)C(CCCc1ccccc1)C(=O)NO (single isomer, unassigned) [Compound No. 47, N^a-[4-(Hydroxyamino)-2(R)-isobutyl-3(R or S)-(3-phenylpropyl)succinyl]-4'-aminomethyl-L-phenylalanine N-methylamide · 1 acetate]	210 nM
CNC(=O)[C@H](CCCCN)NC(=O)[C@H](CC(C)C)C(CCCc1ccc(C(=O)OC)cc1)C(=O)NO (single isomer, unassigned) [Compound No. 65, N^a-[4-(Hydroxyamino)-2(R)-isobutyl-3(R or S)-[3-(p-methoxycarbonylphenyl)propyl]succinyl]-L-lysine N-methylamide· 1 acetate]	421 nM
CNC(=O)[C@H](CCCCN)NC(=O)[C@H](CC(C)C)C(CCCc1ccc(C(=O)O)cc1)C(=O)NO (single isomer, unassigned) [Compound No. 67, N^a-[4-(Hydroxyamino)-2(R)-isobutyl-3(R or S)-[3-(p-carboxyphenyl)propyl]succinyl]-L-lysine N-methylamide]	527 nM
CC(C)CC(C(=O)NO)C(CC(C)C)C(=O)NC(Cc1ccc(CN)cc1)C(=O)NCCN(C)C (single isomer, unassigned) [Compound No. 89, N^a-[4-(Hydroxyamino)-2(R),3(R or S)-diisobutylsuccinyl]-4'-aminomethyl-L-phenylalanine N-(2-N',N'-dimethylaminoethyl)amide· 2 acetate]	1900 nM
CNC(=O)[C@H](C)NC(=O)[C@H](CC(C)C)C(CCCc1ccc(CN)cc1)C(=O)NO (stereo partly drawn) [Compound No. 58, N^a-[4-(Hydroxyamino)-2(R)-isobutyl-3(RS)-[3-(p-aminomethylphenyl)propyl]succinyl]-L-alanine N-methylamide · 1 acetate]	942 nM

Further lines, results first:

IC50	SMILES
340 nM	CNC(=O)[C@H](CCCNC(=N)N)NC(=O)[C@H](CC(C)C)C(CCOc1ccccc1)C(=O)NO (single isomer, unassigned) [Compound No. 54, N^a-[4-(Hydroxyamino)-2(R)-isobutyl-3(R or S)-(2-phenoxyethyl)succinyl]-L-arginine N-methylamide· 1 acetate]
279 nM	CNC(=O)C(CCCNC(=N)N)NC(=O)C(CC(C)C)C(CCCC1CCCCC1)C(=O)NO (single isomer, unassigned) [Compound No. 55, N^a-[4-(Hydroxyamino)-2(R)-isobutyl-3(R or S)-(3-cyclohexylpropyl)succinyl]-L-arginine N-methylamide · 1 acetate]
2890 nM	CNC(=O)[C@H](C)NC(=O)[C@H](CC(C)C)C(CCCCCNC(C)=N)C(=O)NO (single isomer, unassigned) [Compound No. 62, N^a-[4-(Hydroxyamino)-2(R)-isobutyl-3(R or S)-[5-(acetimidoylimino)pentyl]succinyl]-L-alanine N-methylamide]
